According to patent US10130651B2, “RNAi Therapy for Hepatitis B Virus Infection” (Arrowhead Pharmaceuticals, Inc., priority 2015, dated 2018):
Ends that are not written are not given here.

Assays:
Assay type in all cases: in vivo, NOD-SCID mice (pHBV model)
[1] = tested on: Hepatitis B surface antigen (HBsAg), Hepatitis B Virus; test: Serum HBsAg (ELISA) in pHBV model mice after IV MLP delivery peptide+HBV RNAi triggers (Example 7); conditions: 8 mg/kg MLP delivery peptide without HBV RNAi triggers
Excerpt: (§1) At day −42, 6 to 8 week old female NOD.CB17-Prkdscid/NcrCrl (NOD-SCID) mice were transiently transfected in vivo with MC-HBV1.3 by hydrodynamic tail vein injection (Yang P L et al. “Hydrodynamic injection of viral DNA: a mouse model of acute hepatitis B virus infection.” PNAS USA 2002 Vol. 99: p. 13825-13830). MC-HBV1.3 is a plasmid-derived minicircle that contains the same terminally redundant human hepatitis B virus sequence HBV1.3 as in the HBV1.3.32 transgenic mice (GenBank accession #V01460) (Guidotti L G et al. “High-level hepatitis B virus replication in transgenic mice. J Virol 1995 Vol. 69, p 6158-6169.). […] At day −21, three weeks post transfection, Hepatitis B surface antigen (HBsAg) HBsAg expression levels in serum were measured by ELISA and the mice were grouped according to average HBsAg expression levels. […]
(§2) At various times, before and after administration of MLP delivery peptide+HBV RNAi triggers, isotonic glucose, or MLP delivery peptide alone, serum HBsAg, serum HBV DNA, or liver HBV RNA were measured. […]
Serum was collected and diluted 10 to 2000-fold in PBS containing 5% nonfat dry milk. […] HBsAg levels were determined with a GS HBsAg EIA 3.0 kit (Bio-Rad Laboratories, Inc., Redmond, Wash.) as described by the manufacturer. […]

[2] = tested on: HBV DNA, Hepatitis B Virus; test: Serum HBV DNA (qPCR) in pHBV model mice (Example 7); conditions: 8 mg/kg MLP delivery peptide without HBV RNAi triggers
Excerpt: as §1, §2
The number of copies of HBV genomes in DNA isolated from the pHBV mouse model serum was determined by qPCR. […]
qPCR assays were performed on a 7500 Fast or StepOne Plus Real-Time PCR system (Life Technologies). […] Quantitations of HBV DNA and recovery control plasmid were determined by qPCR reactions performed in triplicate. […]

[3] = Clinical chemistry (liver and renal function) in pHBV model mice; conditions: day 2 (24 hours post-injection) vs day −1
Method: Clinical chemistry markers in mouse serum were measured using a COBAS Integra 400 (Roche Diagnostics, Indianapolis, Ind.) chemical analyzer according to the manufacturer's instructions.
Liver and renal functions were evaluated on day −1 (pre-injection) and day 2 (24 hours post-injection).

MLP delivery peptide: MLP SEQ ID NO: 650 (GIL MLP, L-form) reversibly masked with CDM-NAG (LIGAILKVLATGLPTLISWIKNKRKQ; also: reversibly masked with CDM-NAG)
HBsAg levels in serum [1]: comparable to levels in mice that received a single injection of isotonic glucose
HBV DNA levels in serum [2]: comparable to levels in mice that received a single injection of isotonic glucose
evidence of toxicity [3]: nor was there any evidence of toxicity
